Results on one compound are retold here after patent publication US9463256B2, “Pretargeting kit, method and agents used therein” (KONINKLIJKE PHILIPS N.V., priority 2010, dated 2016).

The nature of this test: Second order kinetic constants of the reactions between CC49-TCO constructs and ^177Lu-28. The format is physicochemical. The settings on record: new TCOs conjugated to CC49, reaction with ^177Lu-28, procedures of Example 5. The procedure: Typically, 1 mg CC49 (5 mg/mL solution in PBS) was modified with 0.6 molar (for kinetic measurements) or 10 molar eq. (for in vivo studies) of TCO-NHS constructs in a total volume of 250 μL PBS. The pH was adjusted to 9 with 1 M sodium carbonate buffer. The reactions were carried out under agitation for 30 min at RT in the dark. Subsequently, the TCO-modified mAbs were extensively washed with PBS using Amicon Ultra-15 centrifugal devices. The numbers of TCO groups per antibody were determined with a tetrazine titration, outlined below.
Tetrazine-DOTA 28 was radiolabeled with carrier-added ^177Lu. mAb (25 μg) modified with ca. 0.6 molar eq. TCO was reacted with 3 molar eq. of ^177Lu-28 (0.5 nM). mAb (25 μg) modified with ca. 10 molar eq. TCO was reacted with 15 molar eq. of ^177Lu-28 (2.5 nM). The reactions were carried out in 50 μL PBS pH 7.4 at 37° C. for 10 min. The reaction mixtures were analyzed by SDS-PAGE and phosphor imager and the reaction yields were determined from the radioactivity in the bands corresponding to the mAb. The counts were quantified with AIDA Image Analyzer software (Raytest).
Tetrazine-DOTA 28 was radiolabeled with carrier-added ^177Lu at a specific activity of 3 MBq/μg. ^177Lu-28 (33 nM) was reacted with increasing concentrations of CC49 modified with 1 eq. of TCO (0.33, 1, and 1.67 μM) in 200 μL PBS, pH 7.4 at 37° C. for 5 min. At selected times (15, 30, 45, 60, 90, 120, 180, and 300 sec) a 20 μL sample was withdrawn and quenched with tetrazine 6 (FIG. 5; described in Rossin et al. Angew Chem Int Ed 2010, 49, 3375) (1.5 μL, 5 mg/mL in DMF). Aliquots of each mixture were analyzed by SDS-PAGE and phosphor imager and the cycloaddition yields were determined from the radioactivity in the bands corresponding to the mAb. The counts were quantified with AIDA Image Analyzer software (Raytest).
The newly synthesized TCO constructs were evaluated with respect to their reactivity towards tetrazine 28. The procedures are described in Example 5.

`CC(C)(OC1CC/C=C/CCC1)C(=O)ON1C(=O)CCC1=O` (single isomer, unassigned) [49b, (E-Minor)-2,5-dioxopyrrolidin-1-yl 2-(cyclooct-4-en-1-yloxy)-2-methylpropanoate]: the “Second order kinetic constant” value came out at 148500 ± 12040 M⁻¹ s⁻¹.
